Measured values: patent US10899709B2, “Novel-alkynyl-substituted 3-phenylpyrrolidine-2,4-diones and use thereof as herbicides” (BAYER CROPSCIENCE AKTIENGESELLSCHAFT, priority 2015, dated 2021)

How the values were obtained:
Type in all cases: in vivo
[1] = system: Echinochloa crus-galli; test: Pre-emergence herbicidal effect; conditions: visual score after 3 weeks
From the text: (§1) Seeds of monocotyledonous and dicotyledonous weed plants and crop plants are laid out in wood-fibre pots in sandy loam and covered with soil. The compounds according to the invention formulated in the form of wettable powders (WP) or as emulsion concentrates (EC) are then applied as aqueous suspension or emulsion at a water application rate of 600 to 800 l/ha (converted) with the addition of 0.2% wetting agent to the surface of the covering soil. After the treatment, the pots are placed in a greenhouse and kept under good growth conditions for the trial plants. The damage to the test plants is scored visually after a test period of 3 weeks by comparison with untreated controls (herbicidal activity in percent (%): 100% activity=the plants have died, 0% activity=like control plants).

[2] = system: Setaria viridis; test: Pre-emergence herbicidal effect; conditions: for Pre-emergence effectiveness SETVI: visual score after 3 weeks
From the text: as §1

[3] = system: Alopecurus myosuroides; test: Pre-emergence herbicidal effect; conditions: visual score after 3 weeks
From the text: as §1

[4] = system: Lolium multiflorum; test: Pre-emergence herbicidal effect; conditions: visual score after 3 weeks
From the text: as §1

[5] = system: Cyperus esculentus; test: Pre-emergence herbicidal effect; conditions: for Pre-emergence effectiveness CYPES: 320 g/ha, visual score after 3 weeks
From the text: as §1

[6] = system: Echinochloa crus-galli; test: Post-emergence herbicidal effect; conditions: visual assessment after about 3 weeks
Description: (§2) Seeds of monocotyledonous and dicotyledonous weed and crop plants are laid out in sandy loam in wood-fibre pots, covered with soil and cultivated in a greenhouse under good growth conditions. 2 to 3 weeks after sowing, the test plants are treated at the one-leaf stage. The compounds according to the invention, formulated in the form of wettable powders (WP) or as emulsion concentrates (EC), are then sprayed as aqueous suspension or emulsion at a water application rate of 600 to 800 l/ha (converted) with the addition of 0.2% of wetting agent onto the green parts of the plants. After the test plants have been left to stand in the greenhouse under optimal growth conditions for about 3 weeks, the action of the preparations is assessed visually in comparison to untreated controls (herbicidal action in percent (%): 100% activity=the plants have died, 0% activity=like control plants).

[7] = system: Setaria viridis; test: Post-emergence herbicidal effect; conditions: visual assessment after about 3 weeks
Description: as §2

[8] = system: Avena fatua; test: Pre-emergence herbicidal effect; conditions: for Pre-emergence effectiveness AVEFA: visual score after 3 weeks
From the text: as §1

[9] = system: Avena fatua; test: Post-emergence herbicidal effect; conditions: visual assessment after about 3 weeks
Description: as §2

[10] = system: Alopecurus myosuroides; test: Post-emergence herbicidal effect; conditions: visual assessment after about 3 weeks
Description: as §2

[11] = system: Lolium multiflorum; test: Post-emergence herbicidal effect; conditions: visual assessment after about 3 weeks
Description: as §2

Row | Structure (SMILES) | Pre-emergence effectiveness ECHCG ([1]; 80 g/ha) [%] | Pre-emergence effectiveness ECHCG ([1]; 320 g/ha) [%] | Pre-emergence effectiveness SETVI ([2]; 80 g/ha) [%] | Pre-emergence effectiveness SETVI ([2]; 320 g/ha) [%] | Pre-emergence effectiveness ALOMY ([3]; 80 g/ha) [%] | Pre-emergence effectiveness ALOMY ([3]; 320 g/ha) [%] | Pre-emergence effectiveness LOLMU ([4]; 320 g/ha) [%] | Pre-emergence effectiveness CYPES [5] [%] | Post-emergence effectiveness ECHCG ([6]; 80 g/ha) [%] | Post-emergence effectiveness SETVI ([7]; 80 g/ha) [%] | Pre-emergence effectiveness AVEFA ([8]; 80 g/ha) [%] | Pre-emergence effectiveness AVEFA ([8]; 320 g/ha) [%] | Pre-emergence effectiveness LOLMU ([4]; 80 g/ha) [%] | Post-emergence effectiveness ECHCG ([6]; 20 g/ha) [%] | Post-emergence effectiveness SETVI ([7]; 20 g/ha) [%] | Post-emergence effectiveness AVEFA ([9]; 80 g/ha) [%] | Post-emergence effectiveness ALOMY ([10]; 20 g/ha) [%] | Post-emergence effectiveness ALOMY ([10]; 80 g/ha) [%] | Post-emergence effectiveness LOLMU ([11]; 20 g/ha) [%] | Post-emergence effectiveness LOLMU ([11]; 80 g/ha) [%] | other results
1 | CCOC(=O)OC1=C(c2c(C)cc(C#CC3CC3)cc2C)C(=O)NC12CCC(COC)C2 (centres unmarked) [Example Ia-2] | 100 | 100 | 90 | 100 | 80 | 100 | 80 | 100 | 80 | 80 | – | – | – | – | – | – | – | – | – | – | –
2 | CC#Cc1cc(C)c(C2=C(OC(=O)C(C)C)C3(CCC(COC)C3)NC2=O)c(CC)c1 (centres unmarked) [Example Ia-8] | 100 | 100 | 80 | 100 | 100 | 100 | 100 | – | 100 | 100 | 90 | 90 | 100 | 100 | 100 | 100 | 100 | 100 | 100 | 100 | –
3 | CCc1cc(C#CC2CC2)cc(C)c1C1=C(OC(=O)C(C)C)C2(CCC(COC)C2)NC1=O (centres unmarked) [Example Ia-12] | 100 | 100 | 90 | 100 | 100 | 100 | 100 | – | 100 | 100 | – | 90 | 100 | 100 | 100 | 100 | 90 | 90 | 90 | 100 | Post-emergence effectiveness AVEFA ([9]; 20 g/ha): 100%
4 | CC#Cc1cc(C)c(C2=C(OC(=O)OCC)C3(CCC(OCCOC)CC3)NC2=O)c(CC)c1 (centres unmarked) [Ia-14] | 100 | 100 | 100 | 100 | 80 | 100 | 100 | 100 | – | – | 80 | 80 | 90 | – | – | – | – | – | – | – | –
5 | CC#Cc1cc(C)c(C2=C(OC(=O)OCC)C3(CCC(COC)CC3)NC2=O)c(CC)c1 (centres unmarked) [Ia-17] | – | – | – | – | – | – | – | – | – | – | – | – | – | – | – | – | – | – | – | – | Comparison data for pre-emergence effectiveness SETVI ([2]; 20 g a.i./ha): 100%; Comparison data for pre-emergence effectiveness AVEFA ([8]; 20 g a.i./ha): 60%; Comparison data for pre-emergence effectiveness CYPES ([5]; 20 g a.i./ha): 100%
